Experimental data as given in the NIST ThermoML archive (doi:10.1021/je800594e).
Numbers after ± are expanded uncertainties.

Settings: for speed of sound / mass density: 101.33 kPa, Liquid; for speed of sound: Pulse-echo method; for mass density: Vibrating tube method; for surface tension liquid-gas: Drop volume

Structure (SMILES) | speed of sound (288.15 K) [m/s] | mass density (288.15 K) [kg/m3] | speed of sound (293.15 K) [m/s] | mass density (293.15 K) [kg/m3] | surface tension liquid-gas (298.15 K) [mN/m] | speed of sound (298.15 K) [m/s] | mass density (298.15 K) [kg/m3] | speed of sound (303.15 K) [m/s] | mass density (303.15 K) [kg/m3] | speed of sound (308.15 K) [m/s] | mass density (308.15 K) [kg/m3]
CCCCCCCC [octane] | 1213.6 ± 1.5 | 706.58 ± 0.25 | 1192.9 ± 1.5 | 702.57 ± 0.25 | 20.99 ± 0.17 | 1171.9 ± 1.5 | 698.55 ± 0.25 | 1150.9 ± 1.5 | 694.48 ± 0.25 | 1130.3 ± 1.5 | 690.42 ± 0.25
Cc1ccc(C)cc1 [1,4-dimethylbenzene] | 1350.7 ± 1.6 | 865.2 ± 0.24 | 1329.6 ± 1.6 | 860.9 ± 0.24 | 27.43 ± 0.2 | 1308.4 ± 1.5 | 856.58 ± 0.24 | 1287.4 ± 1.5 | 852.21 ± 0.24 | 1266.4 ± 1.5 | 847.83 ± 0.24
COC(=O)OC [dimethyl carbonate] | 1240.7 ± 1.5 | 1076.64 ± 0.3 | 1218.1 ± 1.5 | 1070.01 ± 0.29 | 28.08 ± 0.21 | 1195.1 ± 1.5 | 1063.39 ± 0.28 | 1173.2 ± 1.5 | 1056.78 ± 0.28 | 1151.5 ± 1.5 | 1050.15 ± 0.27
